Measured values reported in patent US11667675B2, “MASP inhibitory compounds and uses thereof” (Bayer Aktiengesellschaft, priority 2019, dated 2023).
pIC50: −log10 of the molar value. Read-outs that look alike come from different tables or passages of the source. Bridge positions count the residues as written; N and C are the ends. Square brackets hold non-standard residues; d marks the D form. Peptide text beside a SMILES is read from it. Oic = O=C(O)[C@@H]1C[C@@H]2CCCC[C@@H]2N1; tBuAla = CC(C)(C)C[C@H](N)C(=O)O; Pen = CC(C)(S)[C@H](N)C(=O)O; ΔPro = O=C(O)[C@@H]1C=CCN1; NMeC = CN[C@@H](CS)C(=O)O; Sar = CNCC(=O)O

What was measured:
Human C3-[…] = experiment: C3 deposition assay, human serum on mannan-coated plates; type: biochemical
Experimental: 3. C3 Deposition Assay (Human, Rat, Mouse, Dog, Mini-Pig)
The C3 deposition assay was conducted essentially as described (reference). Multi well plates (Greiner-Nunc 384 Maxi Sorp #464718) were coated over night with Mannan from Saccharomyces cerevisiae (Sigma M7504, 10 μg/mL in 0.05 M carbonate-bicarbonate buffer, pH 9.6) at 4° C. Wells were washed three times with TBS and subsequently incubated for 2 hours with 50 μL of 1% bovine serum albumin (BSA) in Tris-buffered saline (TBS) at 37° C. in order to block non-specific binding. After this step and each of the following incubation steps wells were washed three times with C3 wash buffer (TBS; 0.05% Tween 20; 5 mM CaCl2). […] When appropriately developed the color reaction was stopped by addition of 25 μL of stop solution (Sigma S5814) and quantified on a photometer by measuring absorption at a wavelength of 450 nm. Antibodies were diluted in C3 wash buffer supplemented with 0.5% BSA.

human MASP1 = target: T1, human MASP1 (Homo sapiens, UniProt P48740); experiment: Biochemical human MASP1 assay (FRET substrate); settings: average IC50
T1 construct: Ig-kappa secretion signal (N, cleaved yes); made in house; host or cells: HEK293 (ATCC No. CRL-1573)
T1 sequence (P48740 297-448): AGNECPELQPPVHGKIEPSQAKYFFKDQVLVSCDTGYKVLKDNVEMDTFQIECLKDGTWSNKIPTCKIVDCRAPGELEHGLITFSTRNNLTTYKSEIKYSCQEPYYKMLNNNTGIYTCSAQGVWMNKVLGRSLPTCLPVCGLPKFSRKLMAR
T1 sequence (P48740 449-699): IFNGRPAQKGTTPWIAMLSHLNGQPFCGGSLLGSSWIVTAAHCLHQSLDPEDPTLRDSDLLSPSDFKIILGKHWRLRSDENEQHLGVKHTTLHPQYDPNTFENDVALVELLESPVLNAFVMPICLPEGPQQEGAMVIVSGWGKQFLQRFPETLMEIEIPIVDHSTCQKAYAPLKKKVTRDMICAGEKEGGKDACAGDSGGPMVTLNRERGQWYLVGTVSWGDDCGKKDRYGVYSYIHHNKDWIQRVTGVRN
From the text: (§1) 2.1 Recombinant Expression and Protein Production of Recombinant Human MASP1 and MASP2 Active Proteases.
(§2) The MASP1 or MASP2 expression vectors were transfected into the HEK293 (ATCC No. CRL-1573) cell line using Lipofectamine LTX® Reagent (Thermo-Fischer), as described by the manufacturer. […] The MASP1 and MASP2 proteins were purified from the conditioned media by affinity chromatography on Ni-NTA Superflow resin (Qiagen) as described by the manufacturer.
2.2 Biochemical Human MASP1 Assay
(§3) Recombinant human MASP1 enzyme produced in the HEK 293 cells was diluted in the reaction buffer (50 mM HEPES pH 8,0; 100 mM NaCl; 0.01% CHAPS; 0.5 mM Gluthathione) to the concentration of 20 nM and 25 μl was transferred into each single well of 384-well white microtiter plate (Greiner Bio One 781075). 1 μl of the inhibitor compound solution (dissolved in DMSO, at the corresponding concentration) or pure DMSO as a control was added to the same wells. […] The microtiter plate was incubated for 60-120 min at the temperature of 32 C. The increase of fluorescence intensity was measured in appropriate fluorescence plate reader (e.g. TECAN Ultra) using excitation wavelength of 320 nm and emission wavelength of 420 nm. IC50 values were calculated from percentage of inhibition of human MASP1 activity as a function of test compound concentration.

human MASP2 = target: T2, human MASP2 (Homo sapiens, UniProt O00187); experiment: Biochemical human MASP2 assay (FRET substrate); settings: average IC50
T2 construct: Ig-kappa secretion signal (N, cleaved yes); made in house; host or cells: HEK293 (ATCC No. CRL-1573)
From the text: as §1, §2
2.3 Biochemical Human MASP2 Assay
as §3, with “MASP2” for “MASP1”, “340” for “320”, “490” for “420”

rat MASP1 = target: T3, rat MASP1 (Rattus norvegicus, UniProt Q8CHN8); experiment: Biochemical rat MASP1 assay (FRET substrate); settings: average IC50; recombinant rat MASP1, FRET substrate
T3 construct: Ig-kappa secretion signal (N, cleaved yes); made in house; host or cells: HEK293 (ATCC No. CRL-1573)
T3 sequence (Q8CHN8 302-453 limits assumed): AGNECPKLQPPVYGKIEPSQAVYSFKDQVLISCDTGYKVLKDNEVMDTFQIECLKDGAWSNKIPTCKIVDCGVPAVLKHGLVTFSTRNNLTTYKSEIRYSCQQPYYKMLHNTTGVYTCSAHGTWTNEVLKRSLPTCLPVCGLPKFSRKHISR
T3 sequence (Q8CHN8 454-704 limits assumed): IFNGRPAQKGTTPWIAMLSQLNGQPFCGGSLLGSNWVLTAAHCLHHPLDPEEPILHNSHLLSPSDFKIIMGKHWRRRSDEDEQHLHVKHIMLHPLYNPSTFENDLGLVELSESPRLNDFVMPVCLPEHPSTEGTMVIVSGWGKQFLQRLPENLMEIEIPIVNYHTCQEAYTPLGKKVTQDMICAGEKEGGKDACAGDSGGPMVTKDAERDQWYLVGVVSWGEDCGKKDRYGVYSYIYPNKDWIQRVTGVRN
From the text: 4. Biochemical Rat MASP-1 and MASP-2 Assay
4.1 Recombinant Expression and Protein Production of Recombinant Human and Rat MASP1 and MASP2 Active Proteases.
A truncated cDNA sequence of rat MASP1 encoding the fragment corresponding to the amino acids 302-704 with an C-terminal His Tag and N-terminal Ig-kappa secretion signal (SEQ ID No: 4) was subcloned into the mammalian expression vector pcDNA3.1 (Invitrogen).
The MASP1 or MASP2 expression vectors were transfected into the HEK293 (ATCC No. CRL-1573) cell line using Lipofectamine LTX® Reagent (Thermo-Fischer), as described by the manufacturer. The mature form of the recombinant rat MASP1 and MASP2 proteases were secreted into the culture medium. The MASP1 and MASP2 proteins were purified from the conditioned media by affinity chromatography on Ni-NTA Superflow resin (Qiagen) as described by the manufacturer.
4.2 Biochemical Rat MASP1 Assay.
Recombinant rat MASP1 enzyme produced in the HEK 293 cells was diluted in the reaction buffer (50 mM HEPES pH 8,0; 100 mM NaCl; 0.01% CHAPS; 0.5 mM Gluthathione) to the concentration of 4 nM and 25 μl was transferred into each single well of 384-well white microtiter plate (Greiner Bio One 781075). 1 μl of the inhibitor compound solution (dissolved in DMSO, at the corresponding concentration) or pure DMSO as a control was added to the same wells. The enzymatic reaction was initiated by addition of 25 μl of 40 μM solution of the FRET substrate Dabcyl-[…]-Glu(Edans)-NH2 (SEQ ID NO: 8); (Dabcyl—4-((4-(dimethylamino)phenyl)azo)benzoic acid; Edans—5-[(2-Aminoethyl) amino]naphthalene-1-sulfonyl; custom synthesis by Jerini Peptide Technologies, Berlin) in the reaction buffer. The microtiter plate was incubated for 60-120 min at the temperature of 32 C. The increase of fluorescence intensity was measured in appropriate fluorescence plate reader (e.g. TECAN Ultra) using excitation wavelength of 340 nm and emission wavelength of 490 nm. IC50 values were calculated from percentage of inhibition of rat […] activity as a function of test compound concentration.

[1] = average IC50, read-out: Human C3-DEPOSITION SERUM IC50

T2 sequence (O00187 297-444): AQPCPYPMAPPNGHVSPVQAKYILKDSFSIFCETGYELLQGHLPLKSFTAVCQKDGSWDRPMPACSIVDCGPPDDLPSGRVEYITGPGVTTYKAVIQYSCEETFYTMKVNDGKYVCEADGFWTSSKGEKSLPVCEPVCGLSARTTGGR
T2 sequence (O00187 445-686): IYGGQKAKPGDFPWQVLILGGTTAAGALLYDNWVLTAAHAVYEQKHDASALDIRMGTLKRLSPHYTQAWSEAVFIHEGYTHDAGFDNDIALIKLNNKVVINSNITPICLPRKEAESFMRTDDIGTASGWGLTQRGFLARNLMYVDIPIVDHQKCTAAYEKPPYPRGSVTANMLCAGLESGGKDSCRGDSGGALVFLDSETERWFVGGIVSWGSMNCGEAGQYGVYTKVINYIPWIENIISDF

Compound	pIC50 (Human C3-[…]; [1])	pIC50 (human MASP1)	pIC50 (human MASP2)	pIC50 (rat MASP1)	pIC50 (Human C3-[…]; average IC50, read-out: Human C3-[…] IC50)
CC[C@H](C)[C@@H]1NC(=O)[C@@H]2CCCN2C(=O)[C@@H]2CCCN2C(=O)[C@H](CC(C)(C)C)NC(=O)[C@H](CO)NC(=O)[C@H](CCCNC(=N)N)NC(=O)[C@H](CO)NC(=O)[C@@H](NC(=O)[C@@H](NC(=O)C(C)(C)CN)[C@@H](C)CC)CSSC(C)(C)[C@@H](C(=O)N[C@H](C(=O)N2CCC[C@H]2C(=O)N[C@@H](CC(=O)O)C(N)=O)[C@@H](C)CC)NC1=O [Example 166, (3-Amino-2,2-dimethylpropionic acid)-IC+SRS-((tBu)A)-PPI-(Pen)+IPD-NH2]	7.48	8.38	–	–	–
(2-Hydroxyacetyl)-IC+SRS-((tBu)A)-PPI-(Pen)+IPD-NH2 [Example 300]	7.22	–	–	–	–
CC[C@H](C)[C@H](NC(=O)[C@H](C)N)C(=O)N[C@H]1CSSC[C@@H](C(=O)N[C@H](C(=O)N2CCC[C@H]2C(=O)N[C@@H](CC(=O)O)C(N)=O)[C@@H](C)CC)N(C)C(=O)[C@H]([C@@H](C)CC)NC(=O)[C@@H]2CCCN2C(=O)[C@@H]2CCCN2C(=O)[C@H](CC(C)(C)C)NC(=O)[C@H](CO)NC(=O)[C@H](CCCNC(=N)N)NC(=O)[C@H](CO)NC1=O [Example 48, AIC+SRS-((tBu)A)-PPI-((N-Me)C)+IPD-NH2] (H-AICSRS[tBuAla]PPI[NMeC]IPD-NH2; disulfide 3-11)	6.99	8.71	6.65	7.29	–
CC[C@H](C)[C@H](NC(=O)CNC)C(=O)N[C@H]1CSSC(C)(C)[C@@H](C(=O)N[C@H](C(=O)N2CCC[C@H]2C(N)=O)[C@@H](C)CC)NC(=O)[C@H]([C@@H](C)CC)NC(=O)[C@@H]2C[C@@H]3CCCC[C@@H]3N2C(=O)[C@@H]2CCCN2C(=O)[C@H](CC(C)C)NC(=O)[C@H](CO)NC(=O)[C@H](CCCNC(=N)N)NC(=O)[C@H](CO)NC1=O [Example 376] (H-[Sar]ICSRSLP[Oic]I[Pen]IP-NH2; disulfide 3-11)	7.86	8.96	7.46	–	–
AIC+SRS-((tBu)A)-PPI-((N-Me)C)+IPD-NH2 (HCl Salt) [Example 30]	7.44	–	–	–	–
IC+SRSLP-(Oic)-I-(Pen)+IPD-OH [Example 347]	6.82	–	–	–	–
AIC+SRSLP-(Oic)-I-(Pen)+IPN-OH [Example 418]	7.27	–	–	–	–
((N-Me)G)-IC+SRSLP-(Oic)-I-(Pen)+IPD-NH2 [Example 165]	7.44	–	–	–	–
CC[C@H](C)[C@H](NC(=O)[C@H](C)N)C(=O)N[C@H]1CSSC(C)(C)[C@@H](C(=O)N[C@H](C(=O)N2CCC[C@H]2C(=O)N[C@@H](CC(=O)O)C(=O)O)[C@@H](C)CC)NC(=O)[C@H]([C@@H](C)CC)NC(=O)[C@@H]2C[C@@H]3CCCC[C@@H]3N2C(=O)[C@@H]2C=CCN2C(=O)[C@H](CC(C)C)NC(=O)[C@H](CO)NC(=O)[C@H](CCCNC(=N)N)NC(=O)[C@H](CO)NC1=O [Example 237] (H-AICSRSL[ΔPro][Oic]I[Pen]IPD-OH; disulfide 3-11)	7.83	8.03	7.19	–	–
CC[C@H](C)[C@H](NC(=O)[C@@H]1CSSC[C@H](NC(=O)[C@@H](NC(=O)[C@@H](N)C2CCOCC2)[C@@H](C)CC)C(=O)N[C@@H](CO)C(=O)N[C@@H](CCCNC(=N)N)C(=O)N[C@@H](CO)C(=O)N[C@@H](CC(C)C)C(=O)N2CCC[C@H]2C(=O)N2[C@@H](C[C@@H]3CCCC[C@@H]32)C(=O)N[C@@H]([C@@H](C)CC)C(=O)N1)C(=O)O (single isomer, unassigned) [Example 184]	–	8.33	6.70	–	7.37
N-[(5aS,11S,14S,17S,20S,23R,28R,31S,33aS)-31-[(2S)-butan-2-yl]-17-(3-carbamimidamidopropyl)-11-(2,2-dimethylpropyl)-14,20-bis(hydroxymethyl)-27,27-dimethyl-23-({N-[(morpholin-4-yl)acetyl]-L-isoleucyl}amino)-5,10,13,16,19,22,30,33-octaoxooctacosahydro-1H,5H,10H-dipyrrolo[2,1-j:2′,1′][1,2,5,8,11,14,17,20,23,26]dithiaoctaazacyclononacosine-28-carbonyl]-L-isoleucyl-L-prolyl-L-alpha-asparagine [Example 283]	7.16	–	–	–	–
((N-Me)G)-IC+SRSLP-(Oic)-I-(Pen)+I-((5-Azaspiro[2.4]heptane-1-carboxylic acid)OH [Example 164]	7.09	–	–	–	–
